Key:
collagen type I gels = target: T1, collagen type I gels (Bos taurus, UniProt P02453+P02465); assay: Viscoelastic characterization of collagen type I gels (rheometer); details: 5:1, 10:1 and 30:1 collagen:additive; 0.1-1.0 Hz, 1.0 Pa
T1 construct: purchased Inamed, Freemont, Calif; (Nutragen)
Method: The PTFE printing restricted gels to the 20 mm diameter wettable region. Gels were formed in a humidified incubator at 37° C. overnight prior to mechanical testing. Slides were clamped on the rheometer stage of a AR-G2 rheometer with 20 mm stainless steel parallel plate geometry (TA Instruments, New Castle, Del.), and the 20 mm stainless steel parallel plate geometry was lowered to a gap distance of 600 μm using a normal force control of 0.25N to avoid excessive shearing on the formed gel. An iterative process of stress and frequency sweeps was performed on gels of collagen alone to determine the linear range. All samples were also tested over a frequency range from 0.1 Hz to 1.0 Hz and a controlled stress of 1.0 Pa. Statistical analysis using Design Expert software ([…], Minneapolis, Minn.) was performed at each frequency and a 5-way ANOVA used to compare samples. […] Viscoelastic characterization was performed as described in EXAMPLE 17 on gels formed with varying ratios of collagen to additive (treatment).

HCA SMCs = assay: Elastin content by Fastin elastin assay; type: cell-based, Human; details: gels cultured for 10 days
Method: Differentiation medium was changed every three days and gels were cultured for 10 days. […] Gels were rinsed in 1×PBS overnight to remove serum protein, and gels were tested for elastin content using the Fastin elastin assay per manufacturers protocol (Biocolor, County […].). Briefly, gels were solubilized in 0.25 M oxalic acid by incubating at 100° C. for 1 hr. Elastin was precipitated and samples were then centrifuged at 11,000×g for 10 min. The solubilized collagen supernatant was removed and the elastin pellet was stained by Fastin Dye Reagent for 90 min at room temperature. Samples were centrifuged at 11,000×g for 10 min and unbound dye in the supernatant was removed. Dye from the elastin pellets was released by the Fastin Dye Dissociation Reagent, and 100 μL samples were transferred to a 96-well plate (Costar). Absorbance was measured at 513 nm, and elastin content was calculated from an α-elastin standard curve.

[1] = system: Human coronary artery smooth muscle cells (HCA SMC); assay: Gel compaction by cells seeded in collagen gels; type: cell-based; details: Day 7
Method: Human coronary artery smooth muscle cells (HCA SMC) (Cascade Biologics) were cultured in growth medium (Medium 231 supplemented with smooth muscle growth factor). Cells from passage 3 were used for all experiments. Differentiation medium (Medium 231 supplemented with 1% FBS and 1× pen/strep) was used for all experiments unless otherwise noted.
Collagen gels were prepared with each additive as described with the exception that the 1×PBS example addition was omitted to accommodate the addition of cells in media. After incubating on ice for 30 min, HCA SMCs in differentiation medium were added to the gel solutions to a final concentration of 1×10^6 cells/mL. Gels were formed in quadruplicate in 48-well non-tissue culture treated plates (Costar) for 6 hrs before adding 500 μL/well differentiation medium. Gels were freed from the well edges after 24 hrs. Medium was changed every 2-3 days and images for compaction were taken at the same time points using a Gel Doc System (Bio-Rad). The cross-sectional area of circular gels correlating to degree of compaction was determined using ImageJ software (NIH). Gels containing no cells were used as a negative control and cells in collagen gels absent additive were used as a positive control. By day 10 all gels had compacted to approximately 10% of the original gel area, and differences between additives were small.

T1 sequence (P02453 162-1217 limits assumed): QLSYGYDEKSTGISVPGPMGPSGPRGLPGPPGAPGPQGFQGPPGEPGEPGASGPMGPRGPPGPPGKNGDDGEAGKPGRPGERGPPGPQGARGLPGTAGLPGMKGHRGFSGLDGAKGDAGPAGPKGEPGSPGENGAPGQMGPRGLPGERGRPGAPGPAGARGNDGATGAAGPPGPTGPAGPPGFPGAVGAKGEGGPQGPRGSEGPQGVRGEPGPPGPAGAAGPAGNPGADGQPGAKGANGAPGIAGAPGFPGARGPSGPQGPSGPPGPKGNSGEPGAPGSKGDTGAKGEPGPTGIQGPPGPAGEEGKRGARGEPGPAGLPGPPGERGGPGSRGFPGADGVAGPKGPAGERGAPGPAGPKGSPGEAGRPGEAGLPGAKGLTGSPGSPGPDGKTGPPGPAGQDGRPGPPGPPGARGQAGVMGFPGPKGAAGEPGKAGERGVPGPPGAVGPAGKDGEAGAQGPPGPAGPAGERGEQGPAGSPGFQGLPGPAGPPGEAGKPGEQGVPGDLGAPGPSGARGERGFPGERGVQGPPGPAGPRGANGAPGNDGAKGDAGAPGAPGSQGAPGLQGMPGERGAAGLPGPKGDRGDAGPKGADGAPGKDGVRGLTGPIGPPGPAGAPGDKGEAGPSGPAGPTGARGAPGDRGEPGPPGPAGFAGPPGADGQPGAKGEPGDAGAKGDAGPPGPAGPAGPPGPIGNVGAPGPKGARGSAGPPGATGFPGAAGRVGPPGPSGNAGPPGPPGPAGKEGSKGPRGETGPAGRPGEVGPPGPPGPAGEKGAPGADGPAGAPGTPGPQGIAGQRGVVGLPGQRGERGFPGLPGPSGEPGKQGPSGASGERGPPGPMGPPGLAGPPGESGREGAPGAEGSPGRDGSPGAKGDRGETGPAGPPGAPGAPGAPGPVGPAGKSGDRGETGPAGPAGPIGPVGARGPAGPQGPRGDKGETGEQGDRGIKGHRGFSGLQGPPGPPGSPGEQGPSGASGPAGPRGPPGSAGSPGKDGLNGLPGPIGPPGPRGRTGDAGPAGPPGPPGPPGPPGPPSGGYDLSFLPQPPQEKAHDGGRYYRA
T1 sequence (P02465 80-1117 limits assumed): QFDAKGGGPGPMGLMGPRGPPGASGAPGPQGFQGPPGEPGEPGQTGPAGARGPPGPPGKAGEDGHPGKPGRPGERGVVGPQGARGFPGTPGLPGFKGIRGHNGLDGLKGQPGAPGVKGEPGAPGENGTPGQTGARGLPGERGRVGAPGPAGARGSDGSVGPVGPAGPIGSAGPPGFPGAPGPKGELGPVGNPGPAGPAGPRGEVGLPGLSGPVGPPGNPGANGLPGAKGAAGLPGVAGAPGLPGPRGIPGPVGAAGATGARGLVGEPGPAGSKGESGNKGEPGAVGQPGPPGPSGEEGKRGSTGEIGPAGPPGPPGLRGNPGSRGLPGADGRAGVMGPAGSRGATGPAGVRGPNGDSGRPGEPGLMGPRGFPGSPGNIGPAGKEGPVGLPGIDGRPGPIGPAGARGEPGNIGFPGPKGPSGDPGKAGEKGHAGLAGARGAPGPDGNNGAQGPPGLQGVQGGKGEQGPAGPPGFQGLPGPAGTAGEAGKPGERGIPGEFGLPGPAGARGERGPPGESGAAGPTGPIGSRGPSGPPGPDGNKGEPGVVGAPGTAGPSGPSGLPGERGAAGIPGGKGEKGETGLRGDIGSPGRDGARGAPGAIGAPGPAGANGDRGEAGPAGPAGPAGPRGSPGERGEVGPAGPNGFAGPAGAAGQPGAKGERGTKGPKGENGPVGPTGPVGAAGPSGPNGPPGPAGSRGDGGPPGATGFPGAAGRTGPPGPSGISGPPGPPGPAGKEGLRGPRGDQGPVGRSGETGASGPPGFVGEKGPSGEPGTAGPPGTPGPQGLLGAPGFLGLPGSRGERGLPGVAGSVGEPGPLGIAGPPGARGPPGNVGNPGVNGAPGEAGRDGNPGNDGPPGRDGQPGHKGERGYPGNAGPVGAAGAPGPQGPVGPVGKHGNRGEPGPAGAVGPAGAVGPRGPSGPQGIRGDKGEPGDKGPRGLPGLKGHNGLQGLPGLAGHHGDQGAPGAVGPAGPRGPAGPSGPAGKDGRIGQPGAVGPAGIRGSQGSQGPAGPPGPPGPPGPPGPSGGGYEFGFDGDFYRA

dermatan sulfate [DS]
Stiffness of collagen gel (storage modulus G') (collagen type I gels): increase the stiffness of the resulting collagen gel over untreated collagen | Elastin production (HCA SMCs): significantly decreased elastin production over untreated collagen | Gel compaction, statistical significance [1]: significant compared to collagen

Reference: patent publication US10689425B2, “Collagen-binding synthetic peptidoglycans, preparation, and methods of use” (Purdue Research Foundation, priority 2008, dated 2020)
